Some results are limits rather than exact numbers.

In data set [1] the test system is HT29 cells. Briefly: Cell viability (MTT assay), HT29. Type of data set: cell-based. As to conditions: Homo sapiens, HT-29, 96 h treatment, read-out: GI50 ± SD HT29. The protocol:
(§1) SW480 (human colon adenocarcinoma, adherent, epithelial, ATCC number: CCL-228), HT29 (human colon adenocarcinoma, adherent, epithelial, ATCC number: HTB-38), and HCT116 (human colon adenocarcinoma, adherent, epithelial-like, ATCC number: CCL-247) cells were maintained in RPMI-1640 medium (Sigma-Aldrich). Medium was supplemented with heat-inactivated FBS (Biowest), penicillin–streptomycin (Sigma; with 10 000 units penicillin and 10 mg streptomycin per mL in 0.9% NaCl) and L-glutamine (Sigma; 200 mM solution). Cell cultures were cultivated at 37 °C, maintaining a humidified atmosphere consisting of 5% CO2. Gibco™ trypsin–EDTA (0.05%) was used for cell passage.
(§2) To evaluate cell viability, SW480, HT29, and HCT116 cells were harvested from culture flasks by trypsinization and seeded into 96-well plates in 4000 cells per well, 3000 cells per well and 4000 cells per well densities, respectively. After 24 h preincubation period, cells were treated in triplicates with nine different doses of each compound (6a–o and 7a–c) for 96 h. After treatment compound solutions were replaced with MTT solution (MTT reagent in PBS, […]) diluted in a 6 : 1 ratio in non-supplemented RPMI-1640 medium and were additionally incubated for 2 h. After incubation, the medium was removed, and formazan product was dissolved in DMSO. Optical densities were measured at 550 nm with TECAN Infinite® M200 PRO microplate reader using a reference wavelength of 690 nm to correct unspecific absorption. The quantity of viable cells was normalized to untreated controls. The GI50 values were calculated from dose–response curves.
A general note: Tetrazolium assays rely on reduction of a dye to a coloured formazan, in cell work by metabolically active cells.

In data set [2] the target is T1, human serum albumin (Homo sapiens, UniProt P02768).
T1 construct: purchased Chiral Technologies, DAICEL Group, Europe SAS, France CHIRALPAK®HAS (50 × 3 mm, 5 μm)
T1 sequence (P02768 25-609): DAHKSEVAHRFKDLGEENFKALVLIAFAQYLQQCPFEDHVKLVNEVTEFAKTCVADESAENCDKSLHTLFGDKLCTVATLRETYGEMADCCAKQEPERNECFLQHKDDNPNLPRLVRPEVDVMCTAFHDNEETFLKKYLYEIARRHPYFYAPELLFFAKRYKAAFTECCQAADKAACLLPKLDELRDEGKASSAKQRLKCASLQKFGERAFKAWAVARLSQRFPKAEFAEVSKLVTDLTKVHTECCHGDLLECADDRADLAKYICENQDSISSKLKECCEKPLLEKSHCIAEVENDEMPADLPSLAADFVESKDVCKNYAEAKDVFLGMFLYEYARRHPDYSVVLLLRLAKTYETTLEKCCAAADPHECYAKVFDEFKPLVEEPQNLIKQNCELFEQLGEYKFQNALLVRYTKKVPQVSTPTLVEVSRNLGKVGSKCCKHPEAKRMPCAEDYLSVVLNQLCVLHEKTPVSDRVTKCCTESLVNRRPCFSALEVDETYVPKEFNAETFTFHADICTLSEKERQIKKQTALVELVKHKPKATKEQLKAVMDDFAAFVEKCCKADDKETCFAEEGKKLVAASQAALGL
Briefly: Plasma protein binding (PPB), HPLC on albumin-bound stationary phase. Type of data set: in vitro ADME. To be noted: pH 7.4, binding to human serum albumin, HPLC method. As for the experimental part: Retention times of the analytes were measured with Shimadzu HPLC system on the CHIRALPAK®HAS stationary phase (50 × 3 mm, 5 μm, Chiral Technologies, DAICEL Group, Europe SAS, France). The mobile phase A consisted of 50 mM aqueous ammonium acetate buffer (pH 7.4) and phase B of 2-propanol according to Valko et al.[65] Analysis was performed at prolonged 1 mL min^−1 flow rate in the linear gradient. Retention capacity factors (k′) were calculated by using DMSO or a substance with 0% HAS binding for systems' dead time (Rt0). The system was calibrated by injecting the reference compounds: acetylsalicylic acid (CAS 69-72-7), betamethasone (CAS 378-44-9), budesonide (CAS 5133-22-3), carbamazepine (CAS 298-46-4), cimetidine (CAS 51481-61-9), ciprofloxacin (CAS 85721-33-1), indomethacin (CAS 53-86-1), isoniazid (CAS 54-85-3), metronidazole (CAS 443-48-1), nicardipine (CAS 55985-32-5), nizatidine (CAS 76963-41-2) and warfarin (CAS 81-81-2) obtained from Sigma-Aldrich, diclofenac (CAS 15307-86-5) from EMD Chemicals Inc., flumazenil (CAS 78755-81-4) from ABX and ketoprofen (CAS 22071-15-4) from LKT Labs. The logarithmic capacity factors of the references' Rt (log(k′)) on the HSA column were plotted against the %PPB values from literature. The slope and the intercept were used to convert the log(k′) of the compounds (6a, c, f, h, m–o) to %PPB using the regression equation.[66]

Data set [3] relates to HCT116 cells. Kind of data set: Cell viability (MTT assay), HCT116. Type of data set: cell-based. As to conditions: Homo sapiens, HCT-116, 96 h treatment, read-out: GI50 ± SD HCT116. As for the experimental part: as §1, §2
Data set [4] deals with SW480 cells. Briefly: Cell viability (MTT assay), SW480. Type of data set: cell-based. As to conditions: Homo sapiens, SW480, 96 h, 96 h treatment, read-out: GI50 ± SD SW480. The protocol:
as §1, §2

The nature of data set [5]: Determination of HPLC–log P. Type of data set: physicochemical. As to conditions: reversed-phase HPLC on apHera C18 column; methanol / 0.01 M phosphate buffer pH 7.4; mean ± SD. As for the experimental part:
HPLC–log P values were determined using Shimadzu HPLC system equipped with apHera C18 column (10 × 6 mm, 5 μm, Supelco, Bellefonte, PA, USA). Each sample was dissolved in the internal standard mixture, consisting of triphenylene (99.9%, Carl Roth) and toluene (≥98%, Sigma-Aldrich). Analysis was performed at 1.5 mL min^−1 flow rate in the linear gradient where mobile phase consisted of methanol and 0.01 M phosphate buffer (pH 7.4). The HPLC–log P values were calculated from the measured retention times using previously published equation.[57]

`O=C(Cn1nc(-c2ccccc2)c(-c2ccccc2)c1C(=O)O)c1ccccc1` [6a′, 1-(2-Oxo-2-phenylethyl)-3,4-diphenyl-1H-pyrazole-5-carboxylic acid]: the melting point (as a rule, the temperature, or range, at which the solid turns liquid) lay within 209 to 210 °C.

`CCOC(=O)c1c(-c2ccccc2)c(-c2ccccc2)nn1CC(=O)c1ccccc1` [Compound 6a, Ethyl 1-(2-oxo-2-phenylethyl)-3,4-diphenyl-1H-pyrazole-5-carboxylate] displayed a melting point of 112 to 113 °C. Besides, the GI50 – broadly, the concentration at which growth is held to half of that of the control – in data set [1] was > 20 µM. In data set [2], the fraction unbound (commonly the share of the substance not bound to proteins or other matrix) is 0.046. Further, the GI50 in data set [3] worked out at 5.46 ± 0.393 µM. Besides, in data set [4], the GI50 is > 20 µM. Also, the chromatographic logP (commonly lipophilicity estimated from chromatographic retention) in data set [5] was found to be 4.381 ± 0.002.

Molecule `CCOC(=O)c1c(-c2ccccc2)c(-c2ccccc2)nn1CC(=O)c1ccc(OC)cc1` [Compound 6b, Ethyl 1-[2-(4-methoxyphenyl)-2-oxoethyl]-3,4-diphenyl-1H-pyrazole-5-carboxylate] showed a melting point of 144 to 145 °C. In addition, in data set [1], the GI50 is > 20 µM. In data set [3], the GI50 is > 20 µM. For the same molecule, in data set [4], the GI50 is > 20 µM. The molecule also showed a chromatographic logP in data set [5] of 4.468 ± 0.006.

Turning to `CCOC(=O)c1c(-c2ccccc2)c(-c2ccccc2)nn1CC(=O)c1ccc(Cl)cc1` [Compound 6d, Ethyl 1-[2-(4-chlorophenyl)-2-oxoethyl]-3,4-diphenyl-1H-pyrazole-5-carboxylate], the melting point is 135 to 136 °C. Besides, the GI50 in data set [1] is > 20 µM. Besides, the GI50 in data set [3] was 14.5 ± 3.92 µM. Further, in data set [4], the GI50 was > 20 µM. The molecule also gave a chromatographic logP in data set [5] of 4.711 ± 0.006.

In turn, `CCOC(=O)c1c(-c2ccccc2)c(-c2ccccc2)nn1CC(=O)c1ccc(O)cc1` [Compound 6e, Ethyl 1-[2-(4-hydroxyphenyl)-2-oxoethyl]-3,4-diphenyl-1H-pyrazole-5-carboxylate] registered a melting point of 143 to 144 °C. Moreover, the GI50 in data set [1] is > 20 µM. In addition, the GI50 in data set [3] was > 20 µM. In addition, in data set [4], the GI50 was > 20 µM. The same molecule registered a chromatographic logP in data set [5] of 3.803 ± 0.012.

Regarding `CCOC(=O)c1c(-c2ccc(OC)cc2)c(-c2ccc(OC)cc2)nn1CC(=O)c1ccccc1` [Compound 6f, Ethyl 3,4-bis(4-methoxyphenyl)-1-(2-oxo-2-phenylethyl)-1H-pyrazole-5-carboxylate], the melting point fell in the range of 62 to 63 °C. In data set [1], the GI50 was > 20 µM. In data set [2], this molecule showed a fraction unbound of 0.061. Also, the GI50 in data set [3] worked out at 2.29 ± 0.218 µM. In addition, in data set [4], the GI50 is > 20 µM. The molecule also showed a chromatographic logP in data set [5] of 4.462 ± 0.005.

Regarding `CCOC(=O)c1c(-c2ccc(OC)cc2)c(-c2ccc(OC)cc2)nn1CC(=O)c1ccc(OC)cc1` [Compound 6g, Ethyl 3,4-bis(4-methoxyphenyl)-1-[2-(4-methoxyphenyl)-2-oxoethyl]-1H-pyrazole-5-carboxylate], the melting point was 67 to 68 °C. Further, in data set [1], the GI50 was > 20 µM. In addition, the GI50 in data set [3] was > 20 µM. Besides, in data set [4], the GI50 is > 20 µM. For the same molecule, the chromatographic logP in data set [5] was determined as 4.531 ± 0.004.

In the case of `CCOC(=O)c1c(-c2ccc(OC)cc2)c(-c2ccc(OC)cc2)nn1CC(=O)c1ccc(F)cc1` [Compound 6h, Ethyl 1-[2-(4-fluorophenyl)-2-oxoethyl]-3,4-bis(4-methoxy-phenyl)-1H-pyrazole-5-carboxylate], the melting point was 104 to 105 °C. Moreover, the GI50 in data set [1] is 4.76 ± 2.33 µM. The molecule further gave a fraction unbound in data set [2] of 0.062. The GI50 in data set [3] is 2.07 ± 1.45 µM. Moreover, the GI50 in data set [4] is 4.76 ± 2.33 µM. Moreover, in data set [5], the chromatographic logP amounted to 4.531 ± 0.006.

`CCOC(=O)c1c(-c2ccc(OC)cc2)c(-c2ccc(OC)cc2)nn1CC(=O)c1ccc(Cl)cc1` [Compound 6i, Ethyl 1-[2-(4-chlorophenyl)-2-oxoethyl]-3,4-bis(4-methoxy-phenyl)-1H-pyrazole-5-carboxylate] gave a melting point of 132 to 133 °C. The GI50 in data set [1] was > 20 µM. Also, the GI50 in data set [3] was > 20 µM. Further, the GI50 in data set [4] is > 20 µM. In addition, the chromatographic logP in data set [5] was 4.784 ± 0.005.

`CCOC(=O)c1c(-c2ccccc2)c(-c2ccc(F)cc2)nn1CC(=O)c1ccccc1` [Compound 6j, Ethyl 3-(4-fluorophenyl)-1-(2-oxo-2-phenylethyl)-4-phenyl-1H-pyrazole-5-carboxylate]: the melting point fell in the range of 135 to 136 °C. Further, in data set [1], the GI50 is 13.8 ± 0.861 µM. For the same molecule, the GI50 in data set [3] stood at 3.75 ± 1.06 µM. Further, in data set [4], the GI50 came to 9.24 ± 2.15 µM. In data set [5], this molecule registered a chromatographic logP of 4.49 ± 0.006.

Take `CCOC(=O)c1c(-c2ccc(F)cc2)c(-c2ccc(F)cc2)nn1CC(=O)c1ccccc1` [Compound 6k, Ethyl 3,4-bis(4-fluorophenyl)-1-(2-oxo-2-phenylethyl)-1H-pyrazole-5-carboxylate]: the melting point lay in the range of 103 to 104 °C. In addition, the GI50 in data set [1] was 11.1 ± 2.62 µM. In data set [3], the GI50 is 3.39 ± 0.62 µM. In data set [4], the GI50 amounted to 7.81 ± 2.02 µM. Also, the chromatographic logP in data set [5] turned out to be 4.546 ± 0.005.

Molecule `CCOC(=O)c1c(-c2ccc(OC)cc2)c(-c2ccc(F)cc2)nn1CC(=O)c1ccccc1` [Compound 6l, Ethyl 3-(4-fluorophenyl)-4-(4-methoxyphenyl)-1-(2-oxo-2-phenylethyl)-1H-pyrazole-5-carboxylate] registered a melting point of 87 to 88 °C. The GI50 in data set [1] is > 20 µM. In data set [3], the GI50 is 5.05 ± 1.16 µM. Besides, the GI50 in data set [4] came out at 8.28 ± 2.34 µM. The molecule further showed a chromatographic logP in data set [5] of 4.499 ± 0.006.

On to `CCOC(=O)c1c(-c2ccc(OC)cc2)c(-c2ccc(F)cc2)nn1CC(=O)c1ccc(F)cc1` [Compound 6n, Ethyl 3-(4-fluorophenyl)-1-[2-(4-fluorophenyl)-2-oxoethyl]-4-(4-methoxyphenyl)-1H-pyrazole-5-carboxylate], for which the melting point was in the range of 81 to 82 °C. For the same molecule, the GI50 in data set [1] came to 6.78 ± 0.463 µM. In addition, the fraction unbound in data set [2] was 0.047. Also, the GI50 in data set [3] amounted to 2.1 ± 0.198 µM. Also, in data set [4], the GI50 turned out to be 1.64 ± 0.022 µM. The molecule also gave a chromatographic logP in data set [5] of 4.564 ± 0.004.

Regarding `COC(=O)c1c(-c2ccccc2)c(-c2ccccc2)nn1CC(=O)c1ccccc1` [Compound 7a, Methyl 1-(2-oxo-2-phenylethyl)-3,4-diphenyl-1H-pyrazole-5-carboxylate], the melting point is 138 to 139 °C. Besides, in data set [1], the GI50 was > 20 µM. The GI50 in data set [3] is > 20 µM. In addition, the GI50 in data set [4] was > 20 µM. For the same molecule, in data set [5], the chromatographic logP came to 4.279 ± 0.005.

`COC(=O)c1c(-c2ccccc2)c(-c2ccccc2)nn1CC(=O)c1ccc(OC)cc1` [Compound 7b, Methyl 1-[2-(4-methoxyphenyl)-2-oxoethyl]-3,4-diphenyl-1H-pyrazole-5-carboxylate] registered a melting point of 163 to 164 °C. Also, in data set [1], the GI50 is > 20 µM. Further, in data set [3], the GI50 is > 20 µM. Further, the GI50 in data set [4] is > 20 µM. In data set [5], this molecule came in with a chromatographic logP of 4.347 ± 0.007.

Take `COC(=O)c1c(-c2ccccc2)c(-c2ccccc2)nn1CC(=O)c1ccc(F)cc1` [Compound 7c, Methyl 1-[2-(4-fluorophenyl)-2-oxoethyl]-3,4-diphenyl-1H-pyrazole-5-carboxylate]: the melting point was 114 to 115 °C. In addition, the GI50 in data set [1] worked out at 9.72 ± 3.71 µM. Moreover, the GI50 in data set [3] was found to be 2.7 ± 0.689 µM. This molecule displayed a chromatographic logP in data set [5] of 4.327 ± 0.007.
